According to article PMC7949145 (The Journal of Biological Chemistry, 2021):
Entries after “also recorded” stand apart in the source; their conditions may differ. Read-outs that look alike come from different tables or passages of the source.

Legend:
Mtr LpqY [1] = target: T1, Mtr LpqY (Mycolicibacterium thermoresistibile, UniProt G7CES0); assay: Thermal shift assay (SYPRO Orange) of potential ligands; assay type: binding, Mycobacterium thermoresistible; conditions: ligand 10 mM; for ΔTm: Mtr LpqY 2.6 μM, shift relative to protein alone (Tm 66.0 °C), no unit in table, °C
T1 sequence (G7CES0 29-471): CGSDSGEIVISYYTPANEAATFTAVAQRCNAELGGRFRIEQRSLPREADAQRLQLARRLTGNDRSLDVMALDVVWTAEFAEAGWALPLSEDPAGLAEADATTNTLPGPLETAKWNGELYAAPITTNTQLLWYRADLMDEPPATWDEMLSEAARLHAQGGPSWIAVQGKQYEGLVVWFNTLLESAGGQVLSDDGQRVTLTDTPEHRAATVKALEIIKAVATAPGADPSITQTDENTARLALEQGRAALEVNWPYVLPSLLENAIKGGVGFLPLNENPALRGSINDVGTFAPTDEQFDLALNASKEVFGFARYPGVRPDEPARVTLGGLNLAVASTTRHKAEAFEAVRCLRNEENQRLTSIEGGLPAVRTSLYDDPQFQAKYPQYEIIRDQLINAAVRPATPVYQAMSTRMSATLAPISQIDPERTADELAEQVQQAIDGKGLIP

Mtr LpqY [2] = target: T1, Mtr LpqY; assay: Saturation transfer difference (STD) NMR; assay type: binding, Mycobacterium thermoresistible; conditions: protein 25 μM, ligand 1 mM, PBS D2O pH 7.4, 288 K
Procedure: However, despite numerous efforts, we were unable to obtain a crystal structure of Mtr LpqY in complex with 6-azido-trehalose. Therefore, to further our understanding into the mode of ligand binding, the binding epitope of 6-azido-trehalose with Mtr LpqY was determined in solution by saturation transfer difference (STD) NMR experiments, as described in the Methods section.
All the STD NMR experiments were performed in PBS D2O buffer, pH 7.4. […] STD NMR spectra were acquired on a Bruker Avance 500.13 MHz at 288 K. The on- and off-resonance spectra were acquired using a train of 50 ms Gaussian selective saturation pulses using a variable saturation time from 0.5 s to 5 s, and a relaxation delay (D1) of 4 s. The water signal was suppressed using the watergate technique ([41]), whereas the residual protein resonances were filtered using a T1ρ-filter of 40 ms. All the spectra were acquired with a spectral width of 8 kHz and 24K data points using 512 scans. The on-resonance spectra were acquired by saturating at 0.80 (aliphatic hydrogens) or 7.20 ppm (aromatic hydrogens), as average chemical shifts predicted from shiftX2 ([42]) for the aliphatic and aromatic residues present in the binding site of Mtr LpqY, whereas the off-resonance spectra were acquired by saturating at 40 ppm. […]

Mtr LpqY [3] = target: T1, Mtr LpqY; assay: Microscale thermophoresis (MST), wild-type protein; assay type: binding, Mycobacterium thermoresistible; conditions: for Kd: 21 °C, wild-type Mtr LpqY 500 nM, mean ± SEM, at least three experiments
mycobacteria = test system: mycobacteria; design: method as in PMID 22978752; conditions: cited from earlier work

Row | Compound | ΔTm (Mtr LpqY [1]) | Recognition in the thermal shift screen (in words) (Mtr LpqY [1]) | also measured
1 | OCC1O[C@H](O[C@H]2OC(CO)[C@H](O)[C@H](O)C2O)C(O)[C@@H](O)[C@H]1O (stereo partly drawn) [Galactotrehalose, α-D-galactopyranosyl-(1→1)-α-D-glucopyranoside] | 6.1 ± 0.6 | – | –
2 | OC[C@H]1O[C@H](O[C@H]2O[C@H](CO)[C@@H](O)[C@H](O)[C@H]2O)[C@@H](O)[C@@H](O)[C@@H]1O [Mannotrehalose, α-D-mannopyranosyl-(1→1)-α-D-glucopyranoside] | 5.9 ± 0.3 | – | –
3 | OC[C@H]1O[C@H](O[C@H]2O[C@H](CO)[C@@H](O)[C@H](O)[C@H]2O)[C@H](O)[C@@H](O)[C@@H]1O [Trehalose, α-D-glucopyranosyl-α-D-glucopyranoside] | – | – | Binding by STD NMR (Mtr LpqY [2]): Binding was confirmed
4 | [N-]=[N+]=N[C@@H]1[C@@H](O)[C@@H](O[C@H]2O[C@H](CO)[C@@H](O)[C@H](O)[C@H]2O)O[C@H](CO)[C@H]1O [3-azido-3-deoxy-trehalose] | 6.7 ± 0.2 | – | Kd (Mtr LpqY [3]; read-out: Kd): 475 ± 17.2 µM; Import into the cytosol of mycobacteria (mycobacteria): is not
5 | OC[C@H]1O[C@H](O[C@H]2C(O)O[C@H](CO)[C@@H](O)[C@@H]2O)[C@H](O)[C@@H](O)[C@@H]1O (stereo partly shown) [Kojibiose] | 7.9 ± 0.2 | reduced ΔTm shifts | Fold reduction in binding affinity (increase in Kd) compared with trehalose (Mtr LpqY [3]): ~30 fold; Kd (Mtr LpqY [3]; read-out: Kd): 2350 ± 123 µM
6 | O=P(O)(O)OC[C@H]1O[C@H](O[C@H]2O[C@H](CO)[C@@H](O)[C@H](O)[C@H]2O)[C@H](O)[C@@H](O)[C@@H]1O [Trehalose-6-phosphate] | 3.7 ± 0.2 | – | –
7 | [N-]=[N+]=N[C@H]1[C@@H](O[C@H]2O[C@H](CO)[C@@H](O)[C@H](O)[C@H]2O)O[C@H](CO)[C@@H](O)[C@@H]1O [2-azido-2-deoxy-trehalose, 2-azido-2-deoxy-α,α′-trehalose] | 1.7 ± 0.1 | only a minor shift | Kd (Mtr LpqY [3]; read-out: Kd): 1916 ± 7.7 µM; Import into the cytosol of mycobacteria (mycobacteria): imported and found in the cytosol
8 | OC[C@H]1O[C@@H](O[C@H]2O[C@H](CO)[C@@H](O)[C@H](O)[C@H]2O)[C@H](O)[C@@H](O)[C@@H]1O [α,β-trehalose] | 3.7 ± 0.1 | – | –
9 | OC[C@H]1O[C@H](O[C@H]2[C@H](O)[C@@H](CO)OC(O)[C@@H]2O)[C@H](O)[C@@H](O)[C@@H]1O (stereo partly shown) [Nigerose] | 5.1 ± 0.1 | reduced ΔTm shifts | –
10 | OC[C@H]1O[C@H](O[C@H]2[C@H](O)[C@@H](O)C(O)O[C@@H]2CO)[C@H](O)[C@@H](O)[C@@H]1O (mixture of isomers) [maltose] | – | reduced ΔTm shifts; also recorded: inability | –
11 | [N-]=[N+]=NC[C@H]1O[C@H](O[C@H]2O[C@H](CO)[C@@H](O)[C@H](O)[C@H]2O)[C@H](O)[C@@H](O)[C@@H]1O [6-azido-6-deoxy-trehalose, 6-azido-6-deoxy-α,α′-trehalose] | – | – | Kd (Mtr LpqY [3]; Kd): 443 ± 5.3 µM; Binding by STD NMR (Mtr LpqY [2]): Binding was confirmed; Import into the cytosol of mycobacteria (mycobacteria): imported and found in the cytosol
12 | OC[C@H]1OC(O)[C@H](O)[C@@H](O)[C@@H]1O (stereo partly shown) [glucose] | – | no influence on the ΔTm | –
13 | C[N+](C)(C)CCOP(=O)([O-])OC[C@H](O)CO [glycerophosphocholine] | – | did not observe binding | –
14 | [N-]=[N+]=N[C@H]1[C@H](O)[C@@H](O)[C@@H](O[C@H]2O[C@H](CO)[C@@H](O)[C@H](O)[C@H]2O)O[C@@H]1CO [4-azido-4-deoxy-trehalose, 4-azido-4-deoxy-α,α′-trehalose] | 10.2 ± 0.1 | comparable to trehalose | Kd (Mtr LpqY [3]; read-out: Kd): 247 ± 7.1 µM; Import into the cytosol of mycobacteria (mycobacteria): imported and found in the cytosol
15 | OC[C@H]1O[C@H](OC[C@H]2OC(O)[C@H](O)[C@@H](O)[C@@H]2O)[C@H](O)[C@@H](O)[C@@H]1O (stereo partly shown) [Isomaltose] | 4.1 ± 0.2 | reduced ΔTm shifts | –
16 | NC[C@H]1O[C@H](O[C@H]2O[C@H](CO)[C@@H](O)[C@H](O)[C@H]2O)[C@H](O)[C@@H](O)[C@@H]1O [6-amino-6-deoxy-trehalose, 6-amino-6-deoxy-α,α′-trehalose] | 7.0 ± 0.1 | – | –
